Reference: article PMC11514582, “Leveraging the Aggregated Protein Dye YAT2150 for Malaria Chemotherapy” (Pharmaceutics, 2024)
Where “and” joins values, the source holds several entries; their conditions need not be identical. Equal values may be shown once.

Assays:
[1] = human hepatocytes; cited from earlier work
3D7 P. falciparum = assay: Parasite-killing profile (parasite viability after 10x IC50); format: cell-based, Plasmodium falciparum; details: treatment for 24 h with 10× IC50
Experimental: After the treatment, the drug was removed and the culture diluted 1/3 and re-established in RBCs labeled with carboxyfluorescein diacetate succinimidyl ester (CFDA-SE, Life Technologies) to a 2% hematocrit in order to evaluate the reinfection capacity of the treated parasites. CFDA-SE-labelled erythrocytes were prepared by incubating 1% hematocrit in RPMI containing 10 μM CFDA-SE at 37 °C for 30 min, after which they were washed and maintained at 50% hematocrit at 4 °C for up to 24 h before use. Parasites were grown for 48 h, a complete replication cycle, in standard culturing conditions (5% O2, 5% CO2, and 90% N2 at 37 °C). After this incubation time, parasitemia was assessed by two-color flow cytometry (Attune NxT Flow Cytometer, Thermo Fisher Scientific, Inc.) using Hoechst 33342 to stain nuclei. Hoechst 33342 fluorescence signal was detected by exciting samples at 405 nm and collecting the emission with a 440/50-nm bandpass filter (VL1), whereas CFDA-SE was excited at 488 nm and detected with a 530/30 nm filter. Samples were analyzed using the Attune NxT software package 3.2.1, and parasite viability was plotted as the percentage of infected CFDA-SE-stained erythrocytes, using as reference untreated samples of the initial inoculum after 48 h of incubation with labeled erythrocytes.

[2] = tested on: P. berghei ookinete development; assay: Ex vivo gametocyte-to-ookinete transition inhibition (ookinete maturation) assay; format: cell-based, Plasmodium berghei; details: ex vivo, 24 h at 21 °C
Experimental: Eight days before ookinete production, 100 µL of a red blood cell (RBC) pellet containing the Plasmodium berghei circumsporozoite protein and thrombospondin-related adhesive protein (TRAP)-related protein (CTRP)-green fluorescent protein (GFP) strain (CTRP-GFP, which expresses GFP when reaching ookinete stage, kindly provided by Inga Siden-Kiamos) in cryopreservation solution (RBC pellet:RPMI:30% glycerol in water, 1:1:2) was administered intraperitoneally (i.p.) to a BALB/c mouse (Charles River Laboratories, Wilmington, MA, USA). […] The effect of drugs on gametocyte-to-ookinete conversion was assessed in three independent replicas by plating 120 µL of each culture treated with serial dilutions of the compounds in 96-well plates and incubated for 24 h at 21 °C with orbital shaking at 50 rpm (modified from). Finally, samples diluted 1:100 in PBS were analyzed in an LSRFortessa flow cytometer (BD Biosciences, Franklin Lakes, NJ, USA) set up with the 4 lasers, 20 parameters standard configuration. The GFP positive cell population was counted (λexcitation: 488 nm; λemission: 525/40 nm) using BD FACSDiva software 6.1.3 (BD Biosciences) for data collection and Flowing Software 2.5.1 (Turku Center for Biotechnology, Turku, Finland) for analysis.

[3] = cited from earlier work
CYP3A4 = CYP3A4 (Homo sapiens, UniProt P08684); assay: in vitro; details: microsomes
[4] = Cytotoxicity assay in A2780 (MTT); format: cell-based; details: human, A2780 cells, read-out: A2780 inhibition (CC50)
Experimental: (§1) THP-1 human acute monocytic leukemia cells and NCI-H460 human lung carcinoma cells were grown in RPMI supplemented with 10% FBS. Hep-G2 human hepatocellular carcinoma cells were cultured in Eagle’s minimum essential medium (EMEM) supplemented with 10% FBS. A2780 human ovarian carcinoma cells were grown in RPMI supplemented with 10% FBS and 2 mM L-glutamine. MCF-7 human breast adenocarcinoma cells were cultured in EMEM containing 2 mM L-glutamine and Earle’s balanced salt solution adjusted with 1.5 g/L sodium bicarbonate, 0.1 mM non-essential amino acids, and 1 mM sodium pyruvate and supplemented with 10% FBS. […] Except for Caco-2 and HUVEC, inhibition of cell growth was evaluated using a protocol based on monitoring the transformation into formazan of the tetrazolium salt of MTT (3-(4,5-dimethylthiazol-2-yl)-2,5-diphenyltretrazolium bromide) by metabolically active cells. […] After 96 further h of incubation in the same conditions, 10 µL of a 5 mg/mL MTT solution in PBS was added to each sample, and the incubation was resumed for another 4 h. […] The absorbance measurement range was framed between one sample containing 4000 cells in plain growth medium (to determine the stable cell concentration) and another sample containing an equal cell number in growth medium supplemented with growth factors (to measure the maximum cell growth at 96 h).

[5] = Cytotoxicity assay in HUVEC (resazurin); format: cell-based; details: human, read-out: HUVEC inhibition (CC50)
[6] = tested on: liver stages of P. berghei in Huh7; details: human hepatoma cell line Huh7; read-out: IC50 against liver stages of P. berghei; cited from earlier work
[7] = cited from earlier work; remark: listed apart in the source
[8] = tested on: P. falciparum asexual blood stages; details: CC50 in HUVEC / IC50 two-hour incubation in P. falciparum
Experimental: The asexual blood stages of P. falciparum parasites of the 3D7 strain (Malaria Research and Reference Reagent Resource Center, Manassas, VA, USA) were cultured in group B human RBCs at 3% hematocrit, which was kept throughout the experiments, and incubated in RPMIc. Parasites were maintained at 37 °C under an atmosphere of 5% O2, 5% CO2, and 90% N2. […] The parasites were then cultured under standard conditions for 48 h, allowing for a complete replication cycle. After the incubation period, 3 µL of culture from each well was mixed with 197 µL of PBS containing 0.1 µM Syto 11 (Thermo Fisher Scientific, Inc.) to obtain a final concentration of 1 × 10^6 to 10 × 10^6 cells/mL. Parasitemia levels were measured using an LSRFortessa flow cytometer equipped with a standard configuration of four lasers and 20 parameters. Single-cell populations were identified on a forward-side scatter plot. […] The inhibition data were then transformed using sigmoidal fitting to determine IC50.
For stage arrest assays, P. falciparum cultures were tightly synchronized in schizont stages by repeated treatment with 70% Percoll (GE Healthcare, Chicago, IL, USA) [26, 27]. […] Pictures were taken with a Nikon Eclipse 50i microscope equipped with a DS-Fi1 camera (Nikon Corporation, Tokyo, Japan).

[9] = cited from earlier work; remark: listed apart in the source
[10] = Cytotoxicity assay in NCI-H460 (MTT); format: cell-based; details: human, NCI-H460 cells, read-out: NCI-H460 inhibition (CC50)
Experimental: as §1

Chain of CYP3A4 (P08684 whole entry): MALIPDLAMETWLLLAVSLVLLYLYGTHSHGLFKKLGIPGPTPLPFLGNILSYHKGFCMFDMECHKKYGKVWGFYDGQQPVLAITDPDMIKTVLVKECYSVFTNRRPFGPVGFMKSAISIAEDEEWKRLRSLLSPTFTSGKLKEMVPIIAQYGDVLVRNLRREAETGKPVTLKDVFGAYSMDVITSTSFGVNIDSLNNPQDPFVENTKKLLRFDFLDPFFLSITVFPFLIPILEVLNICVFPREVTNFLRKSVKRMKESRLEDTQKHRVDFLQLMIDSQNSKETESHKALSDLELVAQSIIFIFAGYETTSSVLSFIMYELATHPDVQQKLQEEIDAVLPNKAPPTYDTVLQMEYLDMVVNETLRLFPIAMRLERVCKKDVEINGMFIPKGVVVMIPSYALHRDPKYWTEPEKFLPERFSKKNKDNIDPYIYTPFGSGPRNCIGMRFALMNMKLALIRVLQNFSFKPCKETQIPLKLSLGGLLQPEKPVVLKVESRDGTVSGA

CCN(CC)c1ccc(/C=C/c2cc[n+](CCCCCCCCCC[n+]3ccc(/C=C/c4ccc(N(CC)CC)cc4)c(C)c3)cc2C)cc1 [YAT2150]
Hepatocyte stability (% remaining after 2 h) [1]: 70.4 ^7% | Hepatocyte stability T1/2 [1]: 277.3 ^7 min | parasite survival (3D7 P. falciparum): 8.5% | concentration that abolished ookinete production [2]: ca. 0.5 µM | Stability in human plasma (% remaining after 1 h) ([3]; 1 h): 100.0 ^7% | Stability in human plasma (% remaining after 2 h) ([3]; 2 h): 99.7 ^7% | Stability in human plasma (% remaining after 6 h) ([3]; 6 h): 91.3 ^7% | inhibition at 30 min, 10 µM (CYP3A4): 35 ± 3% | CC50 at 96 h [4]: 0.59 ± 0.16 µM | CC50 at 48 h [5]: 14.8 ± 3.8 µM | IC50 [6]: 0.78 µM | Microsomal stability (% remaining after 1 h) ([7]; human microsomes, 37 °C): 54.6 ^7% | Microsomal stability T1/2 ([7]; human, microsomes): 80.5 ^7 min | SI (CC50/IC50) [8]: ~66 | Transport through Caco-2 AB (Papp) ([9]; apical to basolateral): 207.6 ± 11.6 ^7 nm/s | Transport through Caco-2 Efflux ratio [9]: 0.5 and 0.48 ± 0.03 ^7 | CC50 at 96 h [10]: 6.76 ± 0.27 µM
